In patent publication US12594265B2, “Methods and compositions for inhibition of STAT3” (Ohio State Innovation Foundation, priority 2017, dated 2026):
Where two headings read alike, the source gives them in different places. One block for each compound: values may come before it.

What was measured:
[1] = system: IL-17 production in PBMCs from MS patients; format: cell-based, human; details: for IL-17 production in PBMCs from MS patients: activated with anti-CD3 for three or six days, different concentrations
Procedure: (§1) FIGS. 14A-14M show representative data for LLL12b suppression of human Th17 development and promotion of Treg development in CD4 T-cells from MS patients. FIGS. 14A, 14E, 14H, and 14K each shown representative data obtained in PBMCs from 22 treatment-naïve MS patients that were activated with αhCD3 plus rhIL-6 for 3 days, in the presence of 0.125 μM or 0.25 μM of LLL12b. DMSO was used as a vehicle control. IL-17 in supernatant was determined by ELISA. FIGS. 14B-14C, 14F, 14I, and 14L each shown representative data obtained in PBMCs from 22 treatment-naïve MS patients that were activated with αhCD3/CD28 plus rhTGFβ. rhIL-2 and RA for 3 days, in the presence of 0.125 μM of LLL12b. DMSO was used as vehicle control. CD25+FoxP3+CD4+ iTregs were determined by intracellular flow cytometry. Cells were gated CD45RA+CD4+ cells. […] IL-17 in each group was compared with one-way ANOVA. […] FIG. 14G the calculated IL-17/Treg ratio of each patient in LLL12b group and DMSO group and compared with Wilcoxon matched-pairs signed rank test. […] FIG. 14J the calculated percent decrease of IL-17/Treg ratio in LLL12b group compared to DMSO group. […] FIG. 14M patient numbers in different ranges of calculated percent decrease of IL-17/Treg.
FIGS. 12A-12B show representative data for the effect of a representative disclosed compound, LLL12b, on the production of proinflammatory cytokines in human peripheral blood mononuclear cells (PBMCs).
LLL12b reduces Teff/Treg ratio by suppressing human Th17 development and promoting Treg development of CD4 T cells from MS patients. Teff/Treg balance is critical for the normal function of the human immune system and increased Teff/Treg ratio favors autoimmunity. As IL-6/STAT3 signaling pathway is critical for the highly encephalitogenic Th17 cells while blocks the development of inducible Tregs (iTregs), we hypothesize that novel small molecule STAT3 inhibitor LLL12b will reduces Teff/Treg ratio by suppressing Th17 development and/or prompting iTreg development. Therefore, we determined the effects of LLL12b on IL-17 production and iTreg development of CD4 T cells from 22 treatment-naïve MS patients (FIGS. 14A-14M). Human PBMCs from 22 treatment-naïve MS patients were activated with αhCD3 for 3 days, in the presence of different concentrations of LLL12b or vehicle control (DMSO), IL-17 production in supernatants was determined by ELISA. As the myelin-reactive CD4 T cells in MS patients are predominantly from the memory T-cell compartment, we activated human PBMCs with αhCD3 to specifically activate effector/memory CD4 T cells.
To determine whether LLL12b treatment decreases Th17/Treg ratio in CD4 T cells from MS patients, the IL-17/Treg ratio of all 22 treatment-naïve MS patients treated with LLL12b was calculated and compared with those treated with DMSO (FIGS. 14G, 14J, and 14M). The data in Table 2 show the patient numbers in different ranges of percentage decrease of IL-17, percentage increase of iTregs or percentage decrease of IL-17/iTreg of 22 treatment-naïve MS patients treated with LLL12b compared to DMSO treatment.

in vivo = assay: in vivo; parameters: species or system mice
[2] = system: CD25+FoxP3+ iTregs of CD4 T cells from MS patients; assay: iTreg development of CD4 T cells from MS patients (intracellular flow cytometry); format: cell-based, human
Procedure: as §1
Meanwhile, we determined the extent to which LLL12b promotes the development of iTregs of CD4 T cells from MS patients (FIGS. 14B-14C, 14F, 14I, and 14L). PBMCs from 22 treatment-naïve MS patients were activated with αhCD3/CD28 for 3 days, in the presence of TGFβ, IL-2 and trans-retinoic acid (iTreg differentiating condition). After 72 h of culture under iTreg differentiating condition, the total number of CD25+FoxP3+ iTregs in the CD4+CD45RA+ population increased from 40% in control group to 59% in the group treated with LLL12b.

[3] = system: IL-23-induced IL-17 production in myelin specific CD4 T cells; assay: IL-23-induced IL-17 production in myelin-specific CD4 T cells (splenocytes of PLP-immunized SJL mice); format: cell-based; details: PLP 139-151 with IL-23 for 3 days, different concentrations
Source text: Briefly, SJL mice were immunized with PLP 139-151. Splenocytes were isolated on day 20 after immunization and activated with PLP 139-151 with our without IL-23 for 3 days, in the presence of different concentrations of LLL12b or DMSO (vehicle control). […] Cells were gated on CD44+CD4+ T cells. Flow data are representative of three independent experiments. […] All error bars denote s.e.m. * * denotes p<0.01; *** denotes p<0.001; **** denotes p<0.0001.

[4] = 0.125 μM, 22 treatment-naïve MS patients
[5] = of 22 treatment-naïve MS patients, compared to DMSO
[6] = mouse, in vivo, mice, Intravenous 2 mg/kg
[7] = mouse, in vivo, mice, Oral 8 mg/kg

Tmax (in vivo; mouse, in vivo): 5 to 10 min | time until cleared (in vivo; mouse, in vivo): ~60 min | AUC (in vivo; mouse, in vivo, ip, 20 mg/kg): 0.431 µM·h | AUC(0-inf) (in vivo; mouse, in vivo, ip, 20 mg/kg): 0.438 µM·h | Cmax (in vivo; mouse, in vivo, ip, 20 mg/kg): 922 nM | Tmax (in vivo; mouse, in vivo, ip, 20 mg/kg): 10 min | bioavailability (in vivo; mouse, in vivo, ip, 20 mg/kg): 29.1% | AUC (in vivo; mouse, in vivo, iv, 5 mg/kg): 0.373 µM·h | AUC(0-inf) (in vivo; mouse, in vivo, iv, 5 mg/kg): 0.377 µM·h | Cmax (in vivo; mouse, in vivo, iv, 5 mg/kg): 978 nM | Tmax (in vivo; mouse, in vivo, iv, 5 mg/kg): 10 min | bioavailability (in vivo; mouse, in vivo, iv, 5 mg/kg): 100% | time until cleared (in vivo; mouse, in vivo, po): about 30 minutes | AUC (in vivo; mouse, in vivo, po, 20 mg/kg): 0.0407 µM·h | Cmax (in vivo; mouse, in vivo, po, 20 mg/kg): 176 nM | Tmax (in vivo; mouse, in vivo, po, 20 mg/kg): 4.98 min | bioavailability (in vivo; mouse, in vivo, po, 20 mg/kg): 2.73%
Structure (SMILES): NS(=O)(=O)c1cccc2c1C(=O)c1cccc(O)c1C2=O [LLL12]
IL-17 production in PBMCs from MS patients [1]: suppress IL-17 production

Structure (SMILES): CN(C)C(=O)Oc1cccc2c1C(=O)c1cccc(S(N)(=O)=O)c1C2=O [LLL12b]
hIL-17 production ([1]; 0.125 μM and 0.25 μM, one MS patient, 3 days): suppressed hIL-17 production | IL-17 production in effector/memory human CD4 T cells [1, 4]: significantly suppressed IL-17 production | IL-17/Treg ratio ([1]; 22 treatment-naïve MS patients, compared to DMSO treated group): significantly lower | IL-17 production in PBMCs from MS patients [1]: suppress IL-17 production | patient numbers with % Decrease of IL-17 5-20% [1, 5]: 11 | patient numbers with % Decrease of IL-17 20-40% [1, 5]: 7 | patient numbers with % Decrease of IL-17/iTreg ratio 5-20% [1, 5]: 5 | patient numbers with % Decrease of IL-17/iTreg ratio 20-40% [1, 5]: 13 | patient numbers with % Decrease of IL-17/iTreg ratio <5% [1, 5]: 1 | patient numbers with % Decrease of IL-17/iTreg ratio >40% [1, 5]: 3 | patient numbers with % Decrease of IL-17 <5% [1, 5]: 1 | patient numbers with % Decrease of IL-17 >40% [1, 5]: 3 | iTreg development of CD4 T cells from MS patients [2, 4]: significantly promotes iTreg development | patient numbers with % Increase of iTregs 5-20% [2, 5]: 13 | patient numbers with % Increase of iTregs 20-40% [2, 5]: 3 | patient numbers with % Increase of iTregs <5% [2, 5]: 5 | patient numbers with % Increase of iTregs >40% [2, 5]: 1 | CD25+FoxP3+ iTregs in the CD4+CD45RA+ population ([2]; one MS patient, 72 h, iTreg differentiating condition, control group 40%): 59% | IL-23-induced IL-17 production [3]: inhibition of IL-23-induced IL-17 production | duration of sustained effective concentration (in vivo; mice, IV): about 4 hours | duration of sustained effective concentration (in vivo; mice, PO): about 8 hours | AUC(0-t) (in vivo; [6]): 892 ± 131 ng·h/mL | Vd (in vivo; [6]): 12.4 ± 2.89 L/kg | clearance (in vivo; [6]): 36.5 mL/min/kg | half-life (in vivo; [6]): 233 ± 27 min | Cmax (in vivo; mouse, in vivo, mice, Intravenous 2 mg/kg, read-out: Co/Cmax): 2880 ± 935 ng/mL | AUC(0-t) (in vivo; [7]): 1360 ± 396 ng·h/mL | half-life (in vivo; [7]): 461 ± 115 min | Cmax (in vivo; mouse, in vivo, mice, Oral 8 mg/kg, read-out: Co/Cmax): 278 ± 93 ng/mL | Tmax (in vivo; mouse, in vivo, mice, Oral 8 mg/kg, read-out: Tmax): 11.4 ± 5.4 min | bioavailability (in vivo; mouse, in vivo, mice, printed in the Intravenous 2 mg/kg column, read-out: F (relative bioavailability)): 38%
